Like-named read-outs stand apart in the source and are kept apart here.
Assays:
[1] = test system: LNCaP; experiment: MTT cytotoxicity assay, LNCaP prostate cancer cells; type: cell-based, human; conditions: for inhibition at 25 µM: 2.5 × 10^−5 M; for inhibition at 2.5 µM: 2.5 × 10^−6 M
Method: The human prostate cancer LNCaP, PC-3, and DU-145 cell lines, as well as human fibroblast cell line, were obtained from the American Type Culture Collection (“ATCC”) and maintained in RPMI-1640, F-12k, and MEM mediums, respectively, supplemented with 10% FBS. Cell lines were maintained at 37° C. under a humidified atmosphere and 5% CO2 for testing of the cytotoxicity of betulinol derivatives. The cytotoxicity assay was performed using MTT assay according to the instructions of ATCC protocol. Cells 1×10^5 in 0.1 ml/well were plated in 96-well culture plates (Costar) and incubated with a different dilution of betulinol derivatives for 24, 48, and 72 hours. Ten μl of 3-[4,5-dimethylthiazol-2-yl]-2,5 diphenyl tetrazolium bromide was added into each well at the end of each incubation period. The reaction product, formazan, was dissolved in the detergent, and the absorbance was read at 540 nm (Ref).
(§1) However, these compounds were not tested on prostate cancer LNCaP cell line by NCI. […] The anti-tumor activity of the compounds was determined at three doses and the total growth inhibition kill effect as pertinent of the control at 24, 48, and 72 hours as presented in Table 11.

[2] = test system: MCF7; experiment: In vitro cytotoxicity, Breast (2), MCF7; type: cell-based, human
[3] = test system: SF-268; experiment: In vitro cytotoxicity, CNS (2), SF-268; type: cell-based, human
[4] = test system: NCI-H460; experiment: In vitro cytotoxicity, Lung (2), NCI-H460; type: cell-based, human
Method: as §1

[5] = test system: PC-3; experiment: In vitro cytotoxicity, Prostate (2), PC-3; type: cell-based, human
[6] = test system: DU-145; experiment: In vitro cytotoxicity, Prostate (2), DU-145; type: cell-based, human
[7] = test system: CAKI-1; experiment: In vitro cytotoxicity, Renal (2), CAKI-1; type: cell-based, human
Method: as §1

[8] = test system: RXF 393; experiment: In vitro cytotoxicity, Renal (2), RXF 393; type: cell-based, human
[9] = test system: TK-10; experiment: In vitro cytotoxicity, Renal (2), TK-10; type: cell-based, human
Method: as §1

[10] = test system: T-47d; experiment: In vitro cytotoxicity, Breast (2), T-47d; type: cell-based, human
Method: as §1

[11] = test system: OVCAR-5; experiment: In vitro cytotoxicity, Ovarian (2), OVCAR-5; type: cell-based, human
Method: as §1

[12] = test system: OVACR-3; experiment: In vitro cytotoxicity, Ovarian (2), OVACR-3; type: cell-based, human
Method: as §1

[13] = test system: U251; experiment: In vitro cytotoxicity, CNS (2), U251; type: cell-based, human
[14] = test system: MALME-3M; experiment: In vitro cytotoxicity, Melanoma (2), MALME-3M; type: cell-based, human
[15] = test system: HOP-92; experiment: In vitro cytotoxicity, Lung (2), HOP-92; type: cell-based, human
Method: as §1

[16] = test system: NCI-H322M; experiment: In vitro cytotoxicity, Lung (2), NCI-H322M; type: cell-based, human
Method: as §1

[17] = test system: 184B5/HER; experiment: In vitro cytotoxicity, Breast (1), 184B5/HER; type: cell-based; conditions: 1 × 10^−4 M
[18] = Homo sapiens, 24 hours, read-out: Growth Inhibition %
[19] = Homo sapiens, 24 hours, 2.5 × 10^−7 M, read-out: Growth Inhibition %
[20] = Homo sapiens, 48 hours, read-out: Growth Inhibition %
[21] = Homo sapiens, 48 hours, 2.5 × 10^−7 M, read-out: Growth Inhibition %

C=C(C)C1CCC2(C=O)CCC3(C)C(CCC4C5(C)CCC(=O)C(C)(C)C5CCC43C)C12 (stereo not drawn) [Compound 5, Betulon Aldehyde]
inhibition at 25 µM [1, 18]: 19%
inhibition at 2.5 µM [1, 18]: 21.9%
inhibition at 0.25 µM [1, 19]: 6.34%
inhibition at 25 µM [1, 20]: 40.2%
inhibition at 2.5 µM [1, 20]: 47.4%
inhibition at 0.25 µM [1, 21]: 29.8%
Percent Killed ([2]; MCF7, 1 × 10^−4 M): 68%
Percent Killed ([3]; SF-268, 1 × 10^−4 M): 27%
Percent Killed ([4]; NCI-H460, 1 × 10^−4 M): 89%

C=C(C)[C@@H]1CC[C@]2(COC(C)=O)CC[C@]3(C)[C@H](CC[C@@H]4[C@@]5(C)CC[C@H](OC(C)=O)C(C)(C)[C@@H]5CC[C@]43C)[C@@H]12 [Compound 6, Betulin Diacetate]
inhibition at 25 µM [1, 18]: 17%
inhibition at 2.5 µM [1, 18]: 18.7%
inhibition at 0.25 µM [1, 19]: 0%
inhibition at 25 µM [1, 20]: 56.6%
inhibition at 2.5 µM [1, 20]: 46.7%
inhibition at 0.25 µM [1, 21]: 27.9%
Percent Killed ([5]; PC-3, 1 × 10^−4 M): 25%
Percent Killed ([5]; PC-3, 1 × 10^−5 M): 15%
Percent Killed ([6]; DU-145, 1 × 10^−4 M): 100%
Percent Killed ([6]; DU-145, 1 × 10^−5 M): 100%
Percent Killed ([6]; DU-145, 1 × 10^−6 M): 100%
Percent Killed ([6]; DU-145, 1 × 10^−7 M): 100%
Percent Killed ([6]; DU-145, 1 × 10^−8 M): 27%
Percent Killed ([7]; CAKI-1, 1 × 10^−4 M): 100%
Percent Killed ([7]; CAKI-1, 1 × 10^−5 M): 100%
Percent Killed ([7]; CAKI-1, 1 × 10^−6 M): 100%
Percent Killed ([8]; RXF 393, 1 × 10^−4 M): 100%
Percent Killed ([8]; RXF 393, 1 × 10^−5 M): 100%
Percent Killed ([8]; RXF 393, 1 × 10^−6 M): 100%
Percent Killed ([8]; RXF 393, 1 × 10^−7 M): 97%
Percent Killed ([8]; RXF 393, 1 × 10^−8 M): 15%
Percent Killed ([9]; TK-10, 1 × 10^−4 M): 100%
Percent Killed ([9]; TK-10, 1 × 10^−5 M): 100%
Percent Killed ([9]; TK-10, 1 × 10^−6 M): 49%
Percent Killed ([2]; MCF7, 1 × 10^−4 M): 100%
Percent Killed ([2]; MCF7, 1 × 10^−5 M): 100%
Percent Killed ([2]; MCF7, 1 × 10^−6 M): 100%
Percent Killed ([2]; MCF7, 1 × 10^−7 M): 100%
Percent Killed ([10]; 1 × 10^−4 M): 100%
Percent Killed ([10]; 1 × 10^−5 M): 100%
Percent Killed ([10]; 1 × 10^−6 M): 100%
Percent Killed ([10]; 1 × 10^−7 M): 23%
Percent Killed ([11]; OVCAR-5, 1 × 10^−4 M): 100%
Percent Killed ([11]; OVCAR-5, 1 × 10^−5 M): 100%
Percent Killed ([11]; OVCAR-5, 1 × 10^−6 M): 100%
Percent Killed ([12]; OVACR-3, 1 × 10^−4 M): 100%
Percent Killed ([12]; OVACR-3, 1 × 10^−5 M): 100%
Percent Killed ([12]; OVACR-3, 1 × 10^−6 M): 96%
Percent Killed ([13]; U251, 1 × 10^−4 M): 100%
Percent Killed ([13]; U251, 1 × 10^−5 M): 100%
Percent Killed ([13]; U251, 1 × 10^−6 M): 100%
Percent Killed ([13]; U251, 1 × 10^−7 M): 100%
Percent Killed ([3]; SF-268, 1 × 10^−4 M): 100%
Percent Killed ([3]; SF-268, 1 × 10^−5 M): 100%
Percent Killed ([3]; SF-268, 1 × 10^−6 M): 100%
Percent Killed ([3]; SF-268, 1 × 10^−7 M): 75%
Percent Killed ([3]; SF-268, 1 × 10^−8 M): 15%
Percent Killed ([14]; 1 × 10^−4 M): 100%
Percent Killed ([14]; 1 × 10^−5 M): 100%
Percent Killed ([14]; 1 × 10^−6 M): 100%
Percent Killed ([14]; 1 × 10^−7 M): 100%
Percent Killed ([14]; 1 × 10^−8 M): 98%
Percent Killed ([15]; HOP-92, 1 × 10^−4 M): 100%
Percent Killed ([15]; HOP-92, 1 × 10^−5 M): 100%
Percent Killed ([15]; HOP-92, 1 × 10^−6 M): 100%
Percent Killed ([4]; NCI-H460, 1 × 10^−4 M): 100%
Percent Killed ([4]; NCI-H460, 1 × 10^−5 M): 100%
Percent Killed ([4]; NCI-H460, 1 × 10^−6 M): 100%
Percent Killed ([4]; NCI-H460, 1 × 10^−7 M): 25%
Percent Killed ([16]; 1 × 10^−4 M): 100%
Percent Killed ([16]; 1 × 10^−5 M): 100%
Percent Killed ([16]; 1 × 10^−6 M): 100%

C=C(C)C1CCC2(COC)CCC3(C)C(CCC4C5(C)CCC(OC)C(C)(C)C5CCC43C)C12 (stereo not drawn) [Compound 7, Betulin Dimethyl ether (Cornelon)]
inhibition at 25 µM [1, 18]: 45%
inhibition at 2.5 µM [1, 18]: 18.1%
inhibition at 0.25 µM [1, 19]: 7.76%
inhibition at 25 µM [1, 20]: 50.9%
inhibition at 2.5 µM [1, 20]: 44%
inhibition at 0.25 µM [1, 21]: 27.9%
Percent Killed ([2]; MCF7, 1 × 10^−4 M): 97%
Percent Killed [17]: Toxic
Percent Killed ([3]; SF-268, 1 × 10^−4 M): 100%
Percent Killed ([4]; NCI-H460, 1 × 10^−4 M): 80%

C=C(C)[C@@H]1CC[C@]2(CO)CC[C@]3(C)[C@H](CC[C@@H]4[C@@]5(C)CC[C@H](OC(C)=O)C(C)(C)[C@@H]5CC[C@]43C)[C@@H]12 [Compound 8, 3-Acetoxy Betulin]
Growth Inhibition % ([1]; 24 hours, 2.5 × 10^−7 M): 0%

C=C(C)C1CCC2(C(=O)NCCCCC(NC(=O)OC(C)(C)C)C(=O)OC)CC[C@]3(C)[C@H](CC[C@@H]4[C@@]5(C)CCC(=O)C(C)(C)[C@@H]5CC[C@]43C)C12 (stereo partly drawn) [Monomer]
cells killed ([1]; 1×10^−4 M): ~80%
inhibition at 100 µM ([1]; Homo sapiens, 48 hours, 1 × 10^−4 M, read-out: Growth Inhibition %): 82.8 ± 14.3%

From patent US8088757B2, “Betulinol derivatives as anti-cancer agents” (priority 2004, dated 2012)
